Source: patent US12139520B2 (priority 2020, dated 2024)
Numbered stars: 1 amine (or outer) side, 2 acyl side, 3 side chain; on linkers, the order of the positions; unused ones are H or OH. Bridge positions count the residues as written; N and C are the ends. Square brackets hold non-standard residues; d marks the D form. Side chains are listed from the residue outwards. Peptide text beside a SMILES is read from it. * marks the point of attachment. C20 diacid = O=C(O)CCCCCCCCCCCCCCCCCCC(=O)*; γGlu = O=C(O)[C@H](CCC(=O)[*:2])N[*:1]; Hyp = O=C(O)[C@@H]1C[C@@H](O)CN1; AEEA = NCCOCCOCC(=O)O

Tests used:
hAM1 receptor = hAM1 receptor (Homo sapiens, UniProt O60895+Q16602); test: cAMP assay for in vitro receptor activation, hAM1-R; format: cell-based; settings: cAMP assay, hAM1 receptor; read-out: hAM1R EC50
Description: General Protocols for cAMP Assays for Measuring In Vitro Receptor Activation
Cells stably overexpressing the hAM1 receptor were obtained from Ogeda (now Astellas Pharma), sub-cloned and a monoclonal cell-line with an appropriate assay-window was expanded, aliquoted and frozen. An aliquot was thawed and plated in DPBS with 0.05% casein and 0.5 mM IBMX as 8000 cells/well in a 384-well format.

hAMY3 receptor = target: T1, hAMY3 receptor (Homo sapiens, UniProt O60896+P30988); test: cAMP assay for in vitro receptor activation, hAMY3-R; format: cell-based; settings: cAMP assay, hAMY3 receptor; read-out: hAMY3R EC50
T1 sequence (P30988 25-474): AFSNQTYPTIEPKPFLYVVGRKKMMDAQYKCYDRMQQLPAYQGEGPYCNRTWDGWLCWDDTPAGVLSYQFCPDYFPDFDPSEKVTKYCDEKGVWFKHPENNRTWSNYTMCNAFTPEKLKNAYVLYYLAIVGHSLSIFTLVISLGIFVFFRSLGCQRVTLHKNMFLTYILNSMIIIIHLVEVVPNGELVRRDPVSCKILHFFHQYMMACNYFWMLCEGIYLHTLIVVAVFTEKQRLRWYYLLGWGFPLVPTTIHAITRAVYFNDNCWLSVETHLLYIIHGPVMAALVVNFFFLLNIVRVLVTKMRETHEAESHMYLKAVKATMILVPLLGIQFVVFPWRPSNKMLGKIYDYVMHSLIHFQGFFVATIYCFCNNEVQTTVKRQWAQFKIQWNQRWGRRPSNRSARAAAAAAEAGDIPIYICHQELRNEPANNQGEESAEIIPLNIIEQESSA
T1 sequence (O60896 24-148 partner): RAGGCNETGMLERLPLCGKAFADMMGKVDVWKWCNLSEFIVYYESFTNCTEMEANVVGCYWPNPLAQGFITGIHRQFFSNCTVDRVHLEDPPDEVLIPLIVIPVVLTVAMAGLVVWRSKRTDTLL
Procedure, shortened: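 Receptor activation was measured as cAMP accumulation in a monoclonal cell line stably overexpressing hAMY3. Stimulation with graded doses lasted 30 min at room temperature in the presence of 0.5 mM IBMX, with human amylin as positive control.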

Sequence of hAM1 receptor (Q16602 23-461): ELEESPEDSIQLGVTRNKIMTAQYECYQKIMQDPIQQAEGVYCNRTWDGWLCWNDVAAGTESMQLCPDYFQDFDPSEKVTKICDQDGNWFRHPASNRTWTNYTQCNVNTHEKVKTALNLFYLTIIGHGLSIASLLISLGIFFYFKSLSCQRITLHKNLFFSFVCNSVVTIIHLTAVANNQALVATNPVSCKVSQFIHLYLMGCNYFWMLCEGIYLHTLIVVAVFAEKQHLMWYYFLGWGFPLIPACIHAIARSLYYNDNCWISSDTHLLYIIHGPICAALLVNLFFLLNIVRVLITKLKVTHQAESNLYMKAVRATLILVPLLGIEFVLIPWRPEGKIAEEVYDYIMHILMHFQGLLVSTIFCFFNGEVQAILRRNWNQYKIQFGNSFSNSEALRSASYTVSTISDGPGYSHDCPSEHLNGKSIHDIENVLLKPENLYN
Sequence of hAM1 receptor (O60895 43-175 partner): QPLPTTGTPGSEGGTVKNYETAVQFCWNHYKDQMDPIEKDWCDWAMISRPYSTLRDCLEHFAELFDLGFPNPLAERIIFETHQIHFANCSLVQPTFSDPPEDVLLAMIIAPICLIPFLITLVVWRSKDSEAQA

SMILES	EC50 (hAM1 receptor)	EC50 (hAMY3 receptor)
CC[C@H](C)[C@H](NC(=O)[C@H](CCC(N)=O)NC(=O)[C@H](CCC(=O)O)NC(=O)[C@H](C)NC(=O)[C@H](CC(C)C)NC(=O)[C@H](CCCNC(=N)N)NC(=O)[C@H](CCC(N)=O)NC(=O)[C@@H](NC(=O)[C@@H](NC(=O)[C@@H]1CSSC[C@H](NC(=O)[C@H](CCCCN)NC(=O)CC[C@H](NC(=O)CCCCCCCCCCCCCCCCCCC(=O)O)C(=O)O)C(=O)N[C@@H](CC(N)=O)C(=O)N[C@@H]([C@@H](C)O)C(=O)N[C@@H](C)C(=O)N[C@@H]([C@@H](C)O)C(=O)N1)[C@@H](C)O)C(C)C)C(=O)N[C@@H](Cc1ccc(O)cc1)C(=O)N[C@@H](CCC(N)=O)C(=O)N[C@@H](Cc1ccccc1)C(=O)N[C@H](C(=O)N[C@@H](CC(=O)O)C(=O)N[C@@H](CCCCN)C(=O)N[C@@H](CC(=O)O)C(=O)N[C@@H](CCCCN)C(=O)N[C@@H](CC(=O)O)C(=O)N[C@@H](CCC(N)=O)C(=O)N[C@H](C(=O)N[C@@H](C)C(=O)N1CCC[C@H]1C(=O)N1CCC[C@H]1C(=O)N[C@H](C(=O)N[C@@H](CC(N)=O)C(=O)N[C@H](C(=O)NCC(=O)N[C@@H](CO)C(=O)N[C@@H](CC(N)=O)C(=O)NCC(=O)N1C[C@H](O)C[C@H]1C(N)=O)C(C)C)[C@@H](C)O)C(C)C)[C@@H](C)O [compound 100] ({C20 diacid-γGlu}-KCNTATCTVQRLAEQIYQFTDKDKDQVAPPTNVGSNG[Hyp]-NH2; disulfide 2-7)	> 5000 nM	0.017 nM
CC[C@H](C)[C@H](NC(=O)[C@H](CCC(N)=O)NC(=O)[C@H](CCCCNC(=O)COCCOCCNC(=O)COCCOCCNC(=O)CC[C@H](NC(=O)CCCCCCCCCCCCCCCCCCC(=O)O)C(=O)O)NC(=O)[C@H](C)NC(=O)[C@H](CC(C)C)NC(=O)[C@H](CCCNC(=N)N)NC(=O)[C@H](CCC(N)=O)NC(=O)[C@@H](NC(=O)[C@@H](NC(=O)[C@@H]1CSSC[C@H](NC(=O)[C@@H](N)CCCCN)C(=O)N[C@@H](CC(N)=O)C(=O)N[C@@H]([C@@H](C)O)C(=O)N[C@@H](C)C(=O)N[C@@H]([C@@H](C)O)C(=O)N1)[C@@H](C)O)C(C)C)C(=O)N[C@@H](Cc1ccc(O)cc1)C(=O)N[C@@H](CCC(N)=O)C(=O)N[C@@H](Cc1ccccc1)C(=O)N[C@H](C(=O)N[C@@H](CC(=O)O)C(=O)N[C@@H](CCCCN)C(=O)N[C@@H](CC(=O)O)C(=O)N[C@@H](CCCCN)C(=O)N[C@@H](CC(=O)O)C(=O)N[C@@H](CC(N)=O)C(=O)N[C@H](C(=O)N[C@@H](C)C(=O)N1CCC[C@H]1C(=O)N1CCC[C@H]1C(=O)N[C@H](C(=O)N[C@@H](CC(N)=O)C(=O)N[C@H](C(=O)NCC(=O)N[C@@H](CO)C(=O)N[C@@H](CC(N)=O)C(=O)NCC(=O)N1C[C@H](O)C[C@H]1C(N)=O)C(C)C)[C@@H](C)O)C(C)C)[C@@H](C)O [compound 74] (H-KCNTATCTVQRLAK([AEEA-AEEA-γGlu-C20 diacid])QIYQFTDKDKDNVAPPTNVGSNG[Hyp]-NH2; disulfide 2-7; N-terminus assumed)	> 5000 nM	0.013 nM
CC[C@H](C)[C@H](NC(=O)[C@H](CCC(N)=O)NC(=O)[C@H](Cc1c[nH]cn1)NC(=O)[C@H](C)NC(=O)[C@H](CC(C)C)NC(=O)[C@H](CCCNC(=N)N)NC(=O)[C@H](CCC(N)=O)NC(=O)[C@@H](NC(=O)[C@@H](NC(=O)[C@@H]1CSSC[C@H](NC(=O)[C@@H](N)CCCCN)C(=O)N[C@@H](CC(N)=O)C(=O)N[C@@H]([C@@H](C)O)C(=O)N[C@@H](C)C(=O)N[C@@H]([C@@H](C)O)C(=O)N1)[C@@H](C)O)C(C)C)C(=O)N[C@@H](Cc1ccc(O)cc1)C(=O)N[C@@H](CCC(N)=O)C(=O)N[C@@H](Cc1ccccc1)C(=O)N[C@H](C(=O)N[C@@H](CC(=O)O)C(=O)N[C@@H](CCCCN)C(=O)N[C@@H](CC(=O)O)C(=O)N[C@@H](CCCCN)C(=O)N[C@@H](CC(=O)O)C(=O)N[C@@H](CC(N)=O)C(=O)N[C@H](C(=O)N[C@@H](C)C(=O)N1CCC[C@H]1C(=O)N1CCC[C@H]1C(=O)N[C@H](C(=O)N[C@@H](CC(N)=O)C(=O)N[C@H](C(=O)NCC(=O)N[C@@H](CO)C(=O)N[C@@H](CC(N)=O)C(=O)NCC(=O)N1C[C@H](O)C[C@H]1C(N)=O)C(C)C)[C@@H](C)O)C(C)C)[C@@H](C)O [compound 75] (H-KCNTATCTVQRLAHQIYQFTDKDKDNVAPPTNVGSNG[Hyp]-NH2; disulfide 2-7; N-terminus assumed)	> 5000 nM	0.013 nM
CC[C@H](C)[C@H](NC(=O)[C@H](CCC(N)=O)NC(=O)[C@H](CCC(=O)O)NC(=O)[C@H](C)NC(=O)[C@H](CC(C)C)NC(=O)[C@H](CCCNC(=N)N)NC(=O)[C@H](CCC(N)=O)NC(=O)[C@@H](NC(=O)[C@@H](NC(=O)[C@@H]1CSSC[C@H](NC(=O)[C@@H](N)CCCCN)C(=O)N[C@@H](CC(N)=O)C(=O)N[C@@H]([C@@H](C)O)C(=O)N[C@@H](C)C(=O)N[C@@H]([C@@H](C)O)C(=O)N1)[C@@H](C)O)C(C)C)C(=O)N[C@@H](Cc1ccc(O)cc1)C(=O)N[C@@H](CCC(N)=O)C(=O)N[C@@H](Cc1ccccc1)C(=O)N[C@H](C(=O)N[C@@H](CC(=O)O)C(=O)N[C@@H](CCCCN)C(=O)N[C@@H](CC(=O)O)C(=O)N[C@@H](CCCCN)C(=O)N[C@@H](CC(=O)O)C(=O)N[C@@H](CC(N)=O)C(=O)N[C@H](C(=O)N[C@@H](C)C(=O)N1CCC[C@H]1C(=O)N1CCC[C@H]1C(=O)N[C@@H](Cc1ccc(O)cc1)C(=O)N[C@@H](CC(N)=O)C(=O)N[C@@H](CCC(=O)O)C(=O)NCC(=O)N[C@@H](CO)C(=O)N[C@@H](CC(N)=O)C(=O)NCC(=O)N1C[C@H](O)C[C@H]1C(N)=O)C(C)C)[C@@H](C)O [compound 44] (H-KCNTATCTVQRLAEQIYQFTDKDKDNVAPPYNEGSNG[Hyp]-NH2; disulfide 2-7; N-terminus assumed)	> 5000 nM	0.01 nM
CC[C@H](C)[C@H](NC(=O)[C@H](CCC(N)=O)NC(=O)[C@H](Cc1c[nH]cn1)NC(=O)[C@H](C)NC(=O)[C@H](CC(C)C)NC(=O)[C@H](CCCNC(=N)N)NC(=O)[C@H](CCC(N)=O)NC(=O)[C@@H](NC(=O)[C@@H](NC(=O)[C@@H]1CSSC[C@H](NC(=O)CN)C(=O)N[C@@H](CCCNC(=N)N)C(=O)N[C@@H](Cc2ccccc2)C(=O)NCC(=O)N[C@@H]([C@@H](C)O)C(=O)N1)[C@@H](C)O)C(C)C)C(=O)N[C@@H](Cc1ccc(O)cc1)C(=O)N[C@@H](CCC(N)=O)C(=O)N[C@@H](Cc1ccccc1)C(=O)N[C@H](C(=O)N[C@@H](CC(=O)O)C(=O)N[C@@H](CCCCN)C(=O)N[C@@H](CC(=O)O)C(=O)N[C@@H](CCCCN)C(=O)N[C@@H](CC(=O)O)C(=O)N[C@@H](CC(N)=O)C(=O)N[C@H](C(=O)N[C@@H](C)C(=O)N1CCC[C@H]1C(=O)N[C@@H](CCCNC(=N)N)C(=O)N[C@H](C(=O)N[C@@H](CCCCN)C(=O)N[C@H](C(=O)N[C@@H](CO)C(=O)N1CCC[C@H]1C(=O)N[C@@H](CCC(N)=O)C(=O)NCC(=O)N[C@@H](Cc1ccc(O)cc1)C(N)=O)C(C)C)[C@@H](C)O)C(C)C)[C@@H](C)O [compound 155] (H-GCRFGTCTVQRLAHQIYQFTDKDKDNVAPRTKVSPQGY-NH2; disulfide 2-7; N-terminus assumed)	116 nM	0.045 nM
